Test results taken from ChEMBL document CHEMBL5244229, “Thiazole-containing compounds as therapeutic targets for cancer therapy” (Eur J Med Chem, 2020).
pIC50: −log10 of the molar value. Converted amounts (≈) assume the structure as drawn. Blank lines part the entries; values can stand above or below the compound they belong to.

Columns and labels:
MCF7 [1] = experiment: Induction of apoptosis in human MCF7 cells assessed as dead cells at 10 uM measured after 6 hrs by annexin V-FITC/propidium iodide staining based flow cytometry analysis (reference value: 5.14+/-0.44%); assay type: functional
Tubulin = Tubulin (Bos taurus, UniProt Q6B856+Q862L2+Q862F3); experiment: Antitubulin activity against bovine brain tubulin polymerization by spectrophotometric method
Colon 26 [2] = experiment: Cytotoxicity against mouse Colon 26 cells assessed as inhibition of cell growth; assay type: functional, cell-based
Colon 26 [3] = experiment: Antitumor activity against mouse Colon 26 cells xenografted in mouse assessed as tumor suppression rate at 40 mg/kg, po; assay type: functional
A549 [4] = experiment: Antiproliferative activity against human A549 cells assessed as reduction in cell viability; assay type: functional, cell-based
NCI-H460 = experiment: Cytotoxicity against human NCI-H460 cells; assay type: functional, cell-based
A549 [5] = experiment: Antiproliferative activity against human A549 cells; assay type: functional, cell-based
HT-29 = experiment: Cytotoxicity against human HT-29 cells; assay type: functional, cell-based
MKN-45 = experiment: Cytotoxicity against human MKN-45 cells; assay type: functional, cell-based
[6] = Cytotoxicity against human U-87 MG cells; assay type: functional, cell-based, U-87MG ATCC
SMMC-7721 = experiment: Cytotoxicity against human SMMC-7721 cells; assay type: functional, cell-based
Cytochrome P450 = experiment: Inhibition of CYP450 in human liver microsomes; assay type: ADME, Microsome
MCF7 [7] = experiment: Anticancer activity against human MCF7 cells; assay type: functional, cell-based
A549 [8] = experiment: Anticancer activity against human A549 cells; assay type: functional, cell-based
[9] = Anticancer activity against human PBMC cells; assay type: functional, cell-based
MV4-11 = experiment: Anticancer activity against human MV4-11 cells; assay type: functional, cell-based
HCT-116 [10] = experiment: Anticancer activity against human HCT-116 cells; assay type: functional, cell-based
MCF7 [11] = experiment: Antiproliferative activity against human MCF7 cells assessed as reduction in cell viability incubated for 24 hrs by Celltiter-Glo cell viability assay; assay type: functional, cell-based; conditions: MCF7, 24 h
T47D = experiment: Cytotoxicity against human T47D cells; assay type: functional, cell-based
Enterobacter cloacae = experiment: Inhibition of Enterobacter cloacae Metallo-beta-lactamase IMP-1
MCF7 [12] = experiment: Cytotoxicity against human MCF7 cells assessed as reduction in cell viability by MTT assay; assay type: functional, cell-based
MDA-MB-231 [13] = experiment: Cytotoxicity against human MDA-MB-231 cells assessed as reduction in cell viability by MTT assay; assay type: functional, cell-based
HCT-116 [14] = experiment: Cytotoxicity against human HCT-116 cells assessed as reduction in cell viability by MTT assay; assay type: functional, cell-based
HeLa [15] = experiment: Cytotoxicity against human HeLa cells assessed as reduction in cell viability by MTT assay; assay type: functional, cell-based
[16] = target: Epidermal growth factor receptor (Homo sapiens, UniProt P00533); experiment: Inhibition of EGFR (unknown origin)
MCF7 [17] = experiment: Cytotoxicity against human MCF7 cells; assay type: functional, cell-based
MG-63 = experiment: Cytotoxicity against human MG-63 cells; assay type: functional, cell-based
HeLa [18] = experiment: Cytotoxicity against human HeLa cells; assay type: functional, cell-based
HepG2 [19] = experiment: Cytotoxicity against human HepG2 cells assessed as inhibition of cell growth incubated for 48 hrs by MTT assay; assay type: functional, cell-based; conditions: HepG2, 48 h
[20] = Antiproliferative activity against human A375P cells; assay type: functional, cell-based
A549 [21] = experiment: Induction of apoptosis in human A549 cells assessed as early apoptotic cells for 24 hrs by FITC-annexin V/PI based flow cytometry; assay type: functional
C6 [22] = experiment: Induction of apoptosis in rat C6 cells assessed as early apoptotic cells for 24 hrs by FITC-annexin V/PI based flow cytometry; assay type: functional
A549 [23] = experiment: Induction of apoptosis in human A549 cells assessed as late apoptotic cells for 24 hrs by FITC-annexin V/PI based flow cytometry; assay type: functional
C6 [24] = experiment: Induction of apoptosis in rat C6 cells assessed as late apoptotic cells for 24 hrs by FITC-annexin V/PI based flow cytometry; assay type: functional
C6 [25] = experiment: Inhibition of Akt in rat C6 cells measured after 30 mins by ELISA analysis; assay type: cell-based
Ca-Ski = experiment: Anticancer activity against human Ca-Ski cells assessed as inhibition of cell growth; assay type: functional, cell-based
SK-NEP-1 = experiment: Anticancer activity against human SK-NEP-1 cells assessed as inhibition of cell growth; assay type: functional, cell-based
[26] = target: Vascular endothelial growth factor receptor 2 (Homo sapiens) (UniProt P35968); experiment: Inhibition of VEGFR2 (unknown origin) at 20 uM using 5-FAM-KKKKEEIYFFF-CONH2 as substrate incubated for 1 hr in presence of ATP by kinase glo-assay relative to control
MDA-MB-231 [27] = experiment: Cytotoxicity against human MDA-MB-231 cells assessed as inhibition of cell growth incubated for 48 hrs by MTT assay; assay type: functional, cell-based; conditions: MDA-MB-231, 48 h
MDA-MB-231 [28] = experiment: Antiproliferative activity against human MDA-MB-231 cell line assessed as cell growth inhibition by MTT assay; assay type: functional, cell-based
HeLa [29] = experiment: Antiproliferative activity against human HeLa cells assessed as cell growth inhibition by MTT assay; assay type: functional, cell-based
MDA-MB-231 [30] = experiment: Antiproliferative activity against human MDA-MB-231 cells assessed as reduction in cell growth after 72 hrs; assay type: functional, cell-based; conditions: MDA-MB-231, 72 h
HeLa [31] = experiment: Antiproliferative activity against human HeLa cells assessed as reduction in cell growth after 72 hrs; assay type: functional, cell-based
[32] = target: Nuclear factor NF-kappa-B complex (Homo sapiens) (UniProt Q00653+P19838+Q04206); experiment: Inhibition of NF-kB (unknown origin); assay type: protein-complex assay
HepG2 [33] = experiment: Anticancer activity against human HepG2 cells; assay type: functional, cell-based
K562 = experiment: Anticancer activity against human K562 cells; assay type: functional, cell-based
A549 [34] = experiment: Cytotoxicity against human A549 cells assessed as inhibition of cell growth by MTT assay; assay type: functional, cell-based
NCI-H226 = experiment: Cytotoxicity against human NCI-H226 cells; assay type: functional
HCC 2998 = experiment: Cytotoxicity against human HCC 2998 cells; assay type: functional
IGROV-1 = experiment: Cytotoxicity against human IGROV-1 cells; assay type: functional
OVCAR-4 = experiment: Cytotoxicity against human OVCAR-4 cells; assay type: functional
OVCAR-5 = experiment: Cytotoxicity against human OVCAR-5 cells; assay type: functional

Epidermal growth factor receptor, sequence (P00533 whole entry): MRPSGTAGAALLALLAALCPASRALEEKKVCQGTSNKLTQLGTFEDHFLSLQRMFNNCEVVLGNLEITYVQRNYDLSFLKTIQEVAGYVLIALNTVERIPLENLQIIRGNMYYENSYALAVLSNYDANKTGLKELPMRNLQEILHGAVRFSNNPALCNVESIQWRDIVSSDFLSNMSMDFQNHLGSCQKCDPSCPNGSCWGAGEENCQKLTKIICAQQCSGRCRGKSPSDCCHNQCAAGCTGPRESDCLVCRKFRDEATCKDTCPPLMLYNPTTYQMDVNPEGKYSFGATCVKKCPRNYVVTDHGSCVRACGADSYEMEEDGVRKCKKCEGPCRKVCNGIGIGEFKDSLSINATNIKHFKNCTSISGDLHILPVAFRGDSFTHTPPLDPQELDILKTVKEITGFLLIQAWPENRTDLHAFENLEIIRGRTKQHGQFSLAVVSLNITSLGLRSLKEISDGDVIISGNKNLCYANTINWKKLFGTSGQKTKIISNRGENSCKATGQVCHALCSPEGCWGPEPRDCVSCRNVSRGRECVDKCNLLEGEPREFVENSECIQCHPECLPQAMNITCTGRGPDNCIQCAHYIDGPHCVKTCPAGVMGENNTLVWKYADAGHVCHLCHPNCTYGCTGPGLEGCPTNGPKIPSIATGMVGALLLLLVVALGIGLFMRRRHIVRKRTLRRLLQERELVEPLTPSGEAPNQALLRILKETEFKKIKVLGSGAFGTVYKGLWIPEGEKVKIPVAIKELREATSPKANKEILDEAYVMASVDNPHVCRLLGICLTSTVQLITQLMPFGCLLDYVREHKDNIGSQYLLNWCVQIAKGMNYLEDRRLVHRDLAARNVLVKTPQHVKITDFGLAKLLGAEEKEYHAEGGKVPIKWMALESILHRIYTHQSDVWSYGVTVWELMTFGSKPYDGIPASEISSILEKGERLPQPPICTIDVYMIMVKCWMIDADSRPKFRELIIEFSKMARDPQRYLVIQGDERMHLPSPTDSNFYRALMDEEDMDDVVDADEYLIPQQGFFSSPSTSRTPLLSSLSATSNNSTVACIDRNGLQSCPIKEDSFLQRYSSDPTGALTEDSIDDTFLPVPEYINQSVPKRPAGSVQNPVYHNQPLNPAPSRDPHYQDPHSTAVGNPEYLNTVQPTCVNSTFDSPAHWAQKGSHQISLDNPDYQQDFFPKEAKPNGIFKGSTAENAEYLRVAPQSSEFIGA
Vascular endothelial growth factor receptor 2 (Homo sapiens), sequence (P35968 whole entry): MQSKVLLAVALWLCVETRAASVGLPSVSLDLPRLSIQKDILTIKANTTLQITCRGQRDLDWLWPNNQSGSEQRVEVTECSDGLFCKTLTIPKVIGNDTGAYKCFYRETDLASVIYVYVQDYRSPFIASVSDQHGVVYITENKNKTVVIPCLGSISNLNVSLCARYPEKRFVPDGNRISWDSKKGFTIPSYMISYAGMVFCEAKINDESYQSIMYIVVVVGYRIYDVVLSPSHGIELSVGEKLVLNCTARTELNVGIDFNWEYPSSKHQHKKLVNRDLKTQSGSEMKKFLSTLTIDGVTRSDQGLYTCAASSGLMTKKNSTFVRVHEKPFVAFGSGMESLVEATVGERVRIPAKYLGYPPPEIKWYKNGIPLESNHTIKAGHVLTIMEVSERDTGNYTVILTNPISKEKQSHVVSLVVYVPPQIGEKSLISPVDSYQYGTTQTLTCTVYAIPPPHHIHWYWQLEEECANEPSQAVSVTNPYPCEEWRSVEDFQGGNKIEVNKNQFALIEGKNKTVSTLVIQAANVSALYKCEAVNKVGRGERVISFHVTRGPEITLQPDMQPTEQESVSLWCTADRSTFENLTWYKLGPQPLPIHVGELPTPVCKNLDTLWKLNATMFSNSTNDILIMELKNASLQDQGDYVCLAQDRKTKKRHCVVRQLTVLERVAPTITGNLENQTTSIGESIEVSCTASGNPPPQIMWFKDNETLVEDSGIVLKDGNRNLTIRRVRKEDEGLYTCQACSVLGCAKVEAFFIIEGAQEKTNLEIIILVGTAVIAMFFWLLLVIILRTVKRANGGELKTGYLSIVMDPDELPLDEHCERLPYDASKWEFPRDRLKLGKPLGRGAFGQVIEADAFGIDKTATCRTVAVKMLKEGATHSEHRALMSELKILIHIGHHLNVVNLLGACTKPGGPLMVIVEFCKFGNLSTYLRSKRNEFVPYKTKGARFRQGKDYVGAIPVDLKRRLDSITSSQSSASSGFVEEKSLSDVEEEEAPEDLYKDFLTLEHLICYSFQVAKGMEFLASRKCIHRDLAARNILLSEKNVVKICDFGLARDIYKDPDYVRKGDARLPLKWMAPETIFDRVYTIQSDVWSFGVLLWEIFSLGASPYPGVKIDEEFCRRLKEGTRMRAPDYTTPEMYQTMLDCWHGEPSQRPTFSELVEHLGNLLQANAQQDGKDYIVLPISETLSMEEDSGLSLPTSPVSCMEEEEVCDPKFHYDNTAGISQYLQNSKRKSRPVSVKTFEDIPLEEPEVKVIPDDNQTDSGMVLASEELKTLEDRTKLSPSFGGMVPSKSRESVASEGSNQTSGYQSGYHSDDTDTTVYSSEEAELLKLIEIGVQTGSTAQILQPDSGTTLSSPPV
Nuclear factor NF-kappa-B complex (Homo sapiens), sequence (P19838 whole entry, looked up): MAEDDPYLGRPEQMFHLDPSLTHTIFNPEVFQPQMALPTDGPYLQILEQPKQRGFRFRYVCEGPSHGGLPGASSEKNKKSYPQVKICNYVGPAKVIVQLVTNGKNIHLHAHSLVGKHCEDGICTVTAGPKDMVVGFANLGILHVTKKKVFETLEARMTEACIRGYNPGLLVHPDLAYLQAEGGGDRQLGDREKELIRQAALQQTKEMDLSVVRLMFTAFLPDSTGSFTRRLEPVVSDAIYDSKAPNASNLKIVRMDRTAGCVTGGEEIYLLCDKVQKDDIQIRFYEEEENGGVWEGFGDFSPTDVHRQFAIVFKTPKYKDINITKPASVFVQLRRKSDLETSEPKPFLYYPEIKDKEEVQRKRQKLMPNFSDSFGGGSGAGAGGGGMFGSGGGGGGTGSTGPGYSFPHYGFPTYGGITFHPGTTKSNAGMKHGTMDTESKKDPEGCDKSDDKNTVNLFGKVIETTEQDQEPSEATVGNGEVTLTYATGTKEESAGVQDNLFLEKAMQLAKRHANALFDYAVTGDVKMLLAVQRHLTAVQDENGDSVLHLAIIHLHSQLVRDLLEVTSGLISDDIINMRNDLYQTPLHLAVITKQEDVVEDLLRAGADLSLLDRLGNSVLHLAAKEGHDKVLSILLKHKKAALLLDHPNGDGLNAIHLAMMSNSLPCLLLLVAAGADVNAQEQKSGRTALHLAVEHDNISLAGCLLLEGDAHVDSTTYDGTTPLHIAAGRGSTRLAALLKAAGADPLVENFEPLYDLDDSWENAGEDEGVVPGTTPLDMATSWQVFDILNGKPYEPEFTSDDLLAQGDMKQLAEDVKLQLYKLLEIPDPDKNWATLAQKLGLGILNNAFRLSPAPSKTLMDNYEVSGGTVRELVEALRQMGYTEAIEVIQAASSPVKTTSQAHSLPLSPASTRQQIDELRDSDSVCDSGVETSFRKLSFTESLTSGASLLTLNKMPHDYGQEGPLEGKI
Nuclear factor NF-kappa-B complex (Homo sapiens), sequence (Q00653 whole entry, looked up): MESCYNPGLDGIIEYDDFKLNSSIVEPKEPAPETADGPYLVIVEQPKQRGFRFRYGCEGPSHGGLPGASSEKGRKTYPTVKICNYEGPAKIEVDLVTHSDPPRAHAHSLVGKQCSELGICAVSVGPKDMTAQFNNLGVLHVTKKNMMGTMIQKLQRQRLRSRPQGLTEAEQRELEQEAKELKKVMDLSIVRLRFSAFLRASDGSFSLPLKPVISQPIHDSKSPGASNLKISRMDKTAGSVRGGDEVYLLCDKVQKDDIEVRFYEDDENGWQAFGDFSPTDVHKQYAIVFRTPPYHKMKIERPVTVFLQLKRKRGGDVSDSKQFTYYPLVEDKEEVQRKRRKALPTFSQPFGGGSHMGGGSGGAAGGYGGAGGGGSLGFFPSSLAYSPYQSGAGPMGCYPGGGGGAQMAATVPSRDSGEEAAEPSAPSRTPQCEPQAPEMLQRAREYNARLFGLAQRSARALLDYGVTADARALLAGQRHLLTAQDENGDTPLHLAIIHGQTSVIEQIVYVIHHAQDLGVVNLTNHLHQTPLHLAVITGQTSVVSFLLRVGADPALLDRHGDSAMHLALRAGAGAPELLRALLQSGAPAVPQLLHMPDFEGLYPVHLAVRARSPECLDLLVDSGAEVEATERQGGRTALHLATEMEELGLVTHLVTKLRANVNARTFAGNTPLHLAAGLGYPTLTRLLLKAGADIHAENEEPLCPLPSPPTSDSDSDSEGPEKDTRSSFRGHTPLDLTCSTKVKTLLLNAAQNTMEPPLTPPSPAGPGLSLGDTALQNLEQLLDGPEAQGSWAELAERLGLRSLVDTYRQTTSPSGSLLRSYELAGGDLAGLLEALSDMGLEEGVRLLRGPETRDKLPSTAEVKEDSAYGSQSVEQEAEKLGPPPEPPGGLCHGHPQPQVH
Nuclear factor NF-kappa-B complex (Homo sapiens), sequence (Q04206 whole entry, looked up): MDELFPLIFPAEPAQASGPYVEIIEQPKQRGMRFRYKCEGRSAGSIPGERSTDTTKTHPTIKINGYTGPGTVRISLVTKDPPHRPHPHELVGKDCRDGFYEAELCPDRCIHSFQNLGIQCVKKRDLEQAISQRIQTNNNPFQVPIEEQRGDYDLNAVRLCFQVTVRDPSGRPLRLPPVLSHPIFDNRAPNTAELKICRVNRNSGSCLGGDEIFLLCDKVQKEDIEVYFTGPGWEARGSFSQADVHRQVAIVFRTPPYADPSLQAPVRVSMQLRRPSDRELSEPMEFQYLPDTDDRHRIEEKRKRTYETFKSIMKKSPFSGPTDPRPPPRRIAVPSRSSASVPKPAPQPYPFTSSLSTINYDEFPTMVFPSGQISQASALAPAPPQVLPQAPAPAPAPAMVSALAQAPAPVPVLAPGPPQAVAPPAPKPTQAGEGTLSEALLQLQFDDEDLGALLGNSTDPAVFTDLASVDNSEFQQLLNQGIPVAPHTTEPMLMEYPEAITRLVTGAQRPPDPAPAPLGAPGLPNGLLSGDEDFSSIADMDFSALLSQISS

Compound: COc1ccc(-c2nn(-c3ccccc3)cc2/C=N/Nc2nc(-c3ccc(Cl)cc3)cs2)cc1
Activity (MCF7 [1]): 25.61%

Compound: O=S(=O)(Nc1ccc(-c2csc(N/N=C/c3ccc(N(CCCl)CCCl)cc3)n2)cc1)c1ccc(C(F)(F)F)cc1
pIC50 (MV4-11): 5.66
IC50 (HCT-116 [10]): 3.02 µg/mL
IC50 (MCF7 [11]): 3.02 µg/mL (≈ 4.7 µM)

Compound: Cc1ccc(Oc2ccc(-c3csc(N)n3)cc2)cc1
pIC50 (T47D): 6.27

Compound: CC(=O)Nc1nc2ccc(NS(=O)(=O)c3ccc(C4CCCCC4)cc3)cc2s1
pIC50 (MCF7 [17]): 4.44
pIC50 (MG-63): 4.47
pIC50 (HeLa [18]): 4.36

Compound: CNC(=O)c1cc(Oc2ccc(NC(=O)Nc3ccc(Cl)c(C(F)(F)F)c3)cc2)ccn1 [SORAFENIB]
pIC50 (HepG2 [19]): 5.28
pIC50 [20]: 5.25

Compound: Nc1ccccc1C(=O)Nn1c(-c2ccc(Cl)cc2)cs/c1=N/c1ccc([N+](=O)[O-])cc1
pIC50 (MCF7 [12]): 5.27
pIC50 (MDA-MB-231 [13]): 5.27
pIC50 (HCT-116 [14]): 5.27
pIC50 (HeLa [15]): 5.27

Compound: N#Cc1ccc(Oc2ccc(/C=N/Nc3nc(-c4ccc(C#N)cc4)cs3)cc2)cc1
Activity (A549 [21]): 2.3%
Activity (C6 [22]): 4.6%
Activity (A549 [23]): 36.5%
Activity (C6 [24]): 28.2%
inhibition (C6 [25]): 71.7%

Compound: CNc1nc(C)c(-c2nc3ccccc3c(=O)n2-c2ccc(Cl)cc2)s1
IC [32]: 3.3 µM

Compound: O=S1(=O)NCCN1CCNc1nccc(-c2c(-c3ccc(F)cc3)nc3sccn23)n1
pIC50 [20]: 5.72

Compound: COC(=O)Nc1nc2cc(C(=O)c3cccs3)ccc2[nH]1 [NOCODAZOLE]
pIC50 (A549 [34]): 5.74

Compound: CC(=O)Nc1nc2ccc(NC(=O)Cc3c[nH]c4ccccc34)cc2s1
pIC50 (MCF7 [17]): 4.32
pIC50 (MG-63): 4.32
pIC50 (HeLa [18]): 4.32

Compound: Cc1cc(-c2nc3cc(F)ccc3s2)ccc1N
GI50 (NCI-H226): < 0.01 µM
GI50 (NCI-H460): < 0.01 µM
GI50 (HCC 2998): < 0.01 µM
GI50 (IGROV-1): < 0.01 µM
GI50 (OVCAR-4): < 0.1 µM
GI50 (OVCAR-5): < 0.1 µM
GI50 (MCF7 [17]): < 0.1 µM

More lines, main results first:

IC50 (Tubulin): 1 µM
Compound: COc1ccc(C2SC(N)=NC2c2cc(OC)c(OC)c(OC)c2)cc1N (stereo not drawn)
pIC50 (Colon 26 [2]): 7.24
Activity (Colon 26 [3]): 75%

pIC50 (A549 [4]): 6.07
Compound: COc1ccc(-c2csc(Nc3ccc(OC)cc3OC)n2)cc1

pIC50 (A549 [5]): 6.60
Compound: CC(=O)C(C(C)=O)=C1SC=C(n2c(CC#N)nc3ccccc32)N1c1ccccc1
pIC50 (NCI-H460): 6.60
pIC50 (HT-29): 6.60
pIC50 (MKN-45): 6.60
pIC50 [6]: 6.60
pIC50 (SMMC-7721): 6.60

inhibition (INH) (Cytochrome P450): 72.1%
Compound: Cc1ncc(C2=CCC3C4CC=C5CC(O)CCC5(C)C4CCC23C)s1 (stereo not drawn)

pIC50 (A549 [5]): 6.64
Compound: CCOC(=O)/C(C(C)=O)=C1/SC=C(n2c(CC#N)nc3ccccc32)N1c1ccccc1
pIC50 (NCI-H460): 6.64
pIC50 (HT-29): 6.64
pIC50 (MKN-45): 6.64
pIC50 [6]: 6.64
pIC50 (SMMC-7721): 6.64

pIC50 (MCF7 [7]): 5.30
pIC50 (A549 [8]): 5.30
Compound: O=C(NNc1nc(-c2ccc(Cl)cc2)cs1)N1N=C(c2ccccc2)CC1c1ccccc1 (stereo not drawn)

pIC50 [9]: < 4.52
Compound: Clc1ccc(-c2csc(N/N=C/c3ccccn3)n2)cc1

IC (Enterobacter cloacae): 0.52 µM
Compound: C[C@@]1(O)[C@@H](COP(=O)(O)OP(=O)(O)OC[C@H]2O[C@@H](c3nc(C(N)=O)cs3)[C@H](O)[C@@H]2O)O[C@@H](n2cnc3c(N)ncnc32)[C@@H]1O

pIC50 [16]: 5.08
Compound: O=C(Nn1c(-c2ccc(Br)cc2)cs/c1=N\c1ccc([N+](=O)[O-])cc1)c1ccc(Cl)cc1
pIC50 (MCF7 [12]): 5.27
pIC50 (MDA-MB-231 [13]): 5.27
pIC50 (HCT-116 [14]): 5.27
pIC50 (HeLa [15]): 5.27

pIC50 (SK-NEP-1): 5.02
Compound: CO[C@@H]1C[C@H](C[C@@H](C)[C@@H](OC(=O)C2CCCCN2C)C(C)C)CC[C@H]1OCC/N=c1\sc2cc(Cl)ccc2n1C (stereo partly drawn)
pIC50 (Ca-Ski): 5.08

pIC50 [9]: < 4.52
Compound: C/C(=N\Nc1nc(-c2ccc(Cl)cc2)cs1)c1ccccn1

inhibition [26]: 5.72%
Compound: COc1ccc(CN2CCN(c3ccc(NC(=O)Cc4csc5nc(-c6ccc(Cl)cc6)cn45)cn3)CC2)cc1
pIC50 (MDA-MB-231 [27]): 5.85
pIC50 (HepG2 [19]): 4.65

IC50 (MDA-MB-231 [28]): 3.92 µg/mL (≈ 18 µM)
IC50 (HeLa [29]): 11.4 µg/mL (≈ 52.5 µM)
IC50 (MDA-MB-231 [30]): 3.92 µg/mL (≈ 18 µM)
IC50 (HeLa [31]): 11.4 µg/mL (≈ 52.5 µM)
Compound: Cc1csc(N/N=C/c2ccccc2)n1

pIC50 (HepG2 [33]): 5.33
pIC50 (HCT-116 [10]): 5.42
pIC50 (K562): 4.91
Compound: Nc1nc(-c2ccc(Oc3ccc(Cl)cc3)cc2)cs1
pIC50 (T47D): 6.04
pIC50 (SMMC-7721): 5.79
